In US9833497B2, “Human originated EGF domain proteins and use of the same” (CHENGDU SOURCEBIO LIMITED-LIABILITY COMPANY, priority 2013, dated 2017):

What was measured:
Assay type in all cases: cell-based
Moraxella catarrhalis = assay: MIC against Gram-negative bacteria: Moraxella catarrhalis; conditions: for MIC (μg/mL) M. catarrhalis / MIC against M. catarrhalis: 5×10^5 CFU/mL
Procedure, shortened: (§1)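 First, colonies from LB agar were grown in LB at 37° C, 185 rpm, to McFarland turbidity 0.5, then centrifuged and resuspended in fresh LB. Next, wells received 5×10^5 CFU/mL bacteria plus two-fold serially diluted EGF domain protein (triplicate). Finally, plates were shaken at 37° C and the no-growth concentration taken as MIC.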

E. coli DH5α = assay: Antibacterial activity: MIC and growth curve against E. coli DH5α in 96-well plate; conditions: minimal inhibitory concentration against E. coli DH5α; 96-well plate, 5×10^5 CFU/mL, 37° C., judged after 8 h
Procedure, shortened: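 Log-phase bacteria (OD600 ~0.5) resuspended in LB at 5×10^5 CFU/mL, exposed to recombinant protein at 50, 25, 12.5 μg/mL final in triplicate, 37 °C shaking at 175 rpm. OD600 read every 30 min; MIC is lowest concentration showing no growth.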

Citrobacter diversus = assay: MIC against Gram-negative bacteria: Citrobacter diversus; conditions: for MIC (μg/mL) C. diversus / MIC against C. diversus: 5×10^5 CFU/mL
Procedure, shortened: as §1

Klebsiella pneumonia = assay: MIC against Gram-negative bacteria: Klebsiella pneumonia; conditions: for MIC (μg/mL) K. pneumonia / MIC against K. pneumonia: 5×10^5 CFU/mL
Procedure, shortened: as §1

Proteus vulgaris = assay: MIC against Gram-negative bacteria: Proteus vulgaris; conditions: for MIC (μg/mL) P. vulgaris / MIC against P. vulgaris: 5×10^5 CFU/mL
Procedure, shortened: as §1

Proteus mirabilis = assay: MIC against Gram-negative bacteria: Proteus mirabilis; conditions: for MIC (μg/mL) P. mirabilis / MIC against P. mirabilis: 5×10^5 CFU/mL
Procedure, shortened: as §1

Aeromonas hydrophila = assay: MIC against Gram-negative bacteria: Aeromonas hydrophila; conditions: for MIC (μg/mL) A. hydrophila / MIC against A. hydrophila: 5×10^5 CFU/mL
Procedure, shortened: as §1

E. coli BL21 = assay: MIC against Gram-negative bacteria: E. coli BL21; conditions: for MIC (μg/mL) E. coli BL21 / MIC against E. coli BL21: 5×10^5 CFU/mL
Procedure, shortened: as §1

Serratia marcescens = assay: MIC against Gram-negative bacteria: Serratia marcescens; conditions: for MIC (μg/mL) S. marcescens / MIC against S. marcescens: 5×10^5 CFU/mL
Procedure, shortened: as §1

Pseudomonas aeruginosa = assay: MIC against Gram-negative bacteria: Pseudomonas aeruginosa; conditions: for MIC (μg/mL) P. aeruginosa / MIC against P. aeruginosa: 5×10^5 CFU/mL
Procedure, shortened: as §1

Enterobacter cloacae = assay: MIC against Gram-negative bacteria: Enterobacter cloacae; conditions: for MIC (μg/mL) E. cloacae / MIC against E. cloacae: 5×10^5 CFU/mL
Procedure, shortened: as §1

[1] = Moraxella catarrhalis, 96-well plate, 37° C., 10 h
[2] = Citrobacter diversus, 96-well plate, 37° C., 10 h
[3] = Klebsiella pneumonia, 96-well plate, 37° C., 10 h
[4] = Proteus vulgaris, 96-well plate, 37° C., 10 h
[5] = Proteus mirabilis, 96-well plate, 37° C., 10 h
[6] = Aeromonas hydrophila, 96-well plate, 37° C., 10 h
[7] = E. coli BL21, 96-well plate, 37° C., 10 h
[8] = Serratia marcescens, 96-well plate, 37° C., 10 h
[9] = Pseudomonas aeruginosa, 96-well plate, 37° C., 10 h
[10] = Enterobacter cloacae, 96-well plate, 37° C., 10 h
[11] = M. catarrhalis, 10 h cultivation at 37° C.
[12] = C. diversus, 10 h cultivation at 37° C.
[13] = K. pneumonia, 10 h cultivation at 37° C.
[14] = P. vulgaris, 10 h cultivation at 37° C.
[15] = P. mirabilis, 10 h cultivation at 37° C.
[16] = A. hydrophila, 10 h cultivation at 37° C.
[17] = E. coli BL21, 10 h cultivation at 37° C.
[18] = S. marcescens, 10 h cultivation at 37° C.
[19] = P. aeruginosa, 10 h cultivation at 37° C.
[20] = E. cloacae, 10 h cultivation at 37° C.

Question: For “PRT101 (DVDECSSGQHQCDSSTVCFNTVGSYSCRCRPGWKPRHGIPNNQKDTVCE; listed as Homo sapiens)”, which “MIC (μg/mL) M. catarrhalis” value (Moraxella catarrhalis; [1]) is on record?
Answer: The value was 50 µg/mL.

Question: What about the MIC (E. coli DH5α) of the same substance?
Answer: The MIC was 25 µg/mL.

Question: And the “MIC (μg/mL) C. diversus” value (Citrobacter diversus; [2])?
Answer: Its value is 50 µg/mL.

Question: And the “MIC (μg/mL) K. pneumonia” value (Klebsiella pneumonia; [3])?
Answer: The value was 50 µg/mL.

Question: What about the “MIC (μg/mL) P. vulgaris” value (Proteus vulgaris; [4]) of the same substance?
Answer: Its value is 12.5 µg/mL.

Question: What about the “MIC (μg/mL) P. mirabilis” value (Proteus mirabilis; [5]) of the same substance?
Answer: The value was 12.5 µg/mL.

Question: What about the “MIC (μg/mL) A. hydrophila” value (Aeromonas hydrophila; [6]) of the same substance?
Answer: The value was 50 µg/mL.

Question: And the “MIC (μg/mL) E. coli BL21” value (E. coli BL21; [7])?
Answer: The value was 50 µg/mL.

Question: And the “MIC (μg/mL) S. marcescens” value (Serratia marcescens; [8])?
Answer: Its value is 12.5 µg/mL.

Question: And the “MIC (μg/mL) P. aeruginosa” value (Pseudomonas aeruginosa; [9])?
Answer: Its value is 25 µg/mL.

Question: And the “MIC (μg/mL) E. cloacae” value (Enterobacter cloacae; [10])?
Answer: Its value is 25 µg/mL.

Question: How did the “MIC (μg/mL) M. catarrhalis” value (Moraxella catarrhalis; [11]) turn out when “PRT830 (CALGNGGCQHHCVQLTITRHRCQCRPGFQLQEDGRHC; listed as Homo sapiens)” was run?
Answer: Its value is 12.5 µg/mL.

Question: What about the MIC (E. coli DH5α) of the same substance?
Answer: Its MIC is 12.5 µg/mL.

Question: And the “MIC (μg/mL) C. diversus” value (Citrobacter diversus; [12])?
Answer: The value was 25 µg/mL.

Question: And the “MIC (μg/mL) K. pneumonia” value (Klebsiella pneumonia; [13])?
Answer: The value was 12.5 µg/mL.

Question: And the “MIC (μg/mL) P. vulgaris” value (Proteus vulgaris; [14])?
Answer: The value was 12.5 µg/mL.

Question: What about the “MIC (μg/mL) P. mirabilis” value (Proteus mirabilis; [15]) of the same substance?
Answer: The value was 25 µg/mL.

Question: And the “MIC (μg/mL) A. hydrophila” value (Aeromonas hydrophila; [16])?
Answer: Its value is 12.5 µg/mL.

Question: What about the “MIC (μg/mL) E. coli BL21” value (E. coli BL21; [17]) of the same substance?
Answer: Its value is 12.5 µg/mL.

Question: And the “MIC (μg/mL) S. marcescens” value (Serratia marcescens; [18])?
Answer: Its value is 12.5 µg/mL.

Question: What about the “MIC (μg/mL) P. aeruginosa” value (Pseudomonas aeruginosa; [19]) of the same substance?
Answer: The value was 12.5 µg/mL.

Question: What about the “MIC (μg/mL) E. cloacae” value (Enterobacter cloacae; [20]) of the same substance?
Answer: The value was 25 µg/mL.

Question: Which results are given for “PRT33 (ACELHTFGRTCKERCSGQEGCKSYVFCLPDPYGCSCATGWKGLQCN; listed as Homo sapiens)”?
Answer: MIC (μg/mL) M. catarrhalis (Moraxella catarrhalis; [1]): 12.5 µg/mL; MIC (E. coli DH5α): 12.5 µg/mL; MIC (μg/mL) C. diversus (Citrobacter diversus; [2]): 12.5 µg/mL; MIC (μg/mL) K. pneumonia (Klebsiella pneumonia; [3]): 12.5 µg/mL; MIC (μg/mL) P. vulgaris (Proteus vulgaris; [4]): 25 µg/mL; MIC (μg/mL) P. mirabilis (Proteus mirabilis; [5]): 25 µg/mL; MIC (μg/mL) A. hydrophila (Aeromonas hydrophila; [6]): 12.5 µg/mL; MIC (μg/mL) E. coli BL21 (E. coli BL21; [7]): 50 µg/mL; MIC (μg/mL) S. marcescens (Serratia marcescens; [8]): 12.5 µg/mL; MIC (μg/mL) P. aeruginosa (Pseudomonas aeruginosa; [9]): 12.5 µg/mL; MIC (μg/mL) E. cloacae (Enterobacter cloacae; [10]): 25 µg/mL

Question: For “PRT1236 (IGDGCIDMCSGHGRCIQGNCVCDEQWGGLYCD; listed as Homo sapiens)”, which “MIC against M. catarrhalis” value (Moraxella catarrhalis; [1]) is on record?
Answer: Its value is 12.5 µg/mL.

Question: What about the MIC (E. coli DH5α) of the same substance?
Answer: The MIC was 50 µg/mL.

Question: And the “MIC against C. diversus” value (Citrobacter diversus; [2])?
Answer: The value was 12.5 µg/mL.

Question: What about the “MIC against K. pneumonia” value (Klebsiella pneumonia; [3]) of the same substance?
Answer: The value was 50 µg/mL.

Question: And the “MIC against P. vulgaris” value (Proteus vulgaris; [4])?
Answer: Its value is 12.5 µg/mL.

Question: And the “MIC against P. mirabilis” value (Proteus mirabilis; [5])?
Answer: The value was 25 µg/mL.

Question: And the “MIC against A. hydrophila” value (Aeromonas hydrophila; [6])?
Answer: The value was 50 µg/mL.

Question: And the “MIC against E. coli BL21” value (E. coli BL21; [7])?
Answer: Its value is 25 µg/mL.

Question: What about the “MIC against S. marcescens” value (Serratia marcescens; [8]) of the same substance?
Answer: The value was 25 µg/mL.

Question: What about the “MIC against P. aeruginosa” value (Pseudomonas aeruginosa; [9]) of the same substance?
Answer: Its value is 12.5 µg/mL.

Question: And the “MIC against E. cloacae” value (Enterobacter cloacae; [10])?
Answer: The value was 12.5 µg/mL.

Question: For “PRT1009 (DVDECLDQPCHPTGTAACHSLANAFYCQCLPGHTGQWCE; listed as Homo sapiens)”, which MIC (Moraxella catarrhalis; [11]) is on record?
Answer: Its MIC is 25 µg/mL.

Question: And the MIC (E. coli DH5α)?
Answer: Its MIC is 25 µg/mL.

Question: What about the MIC (Citrobacter diversus; [12]) of the same substance?
Answer: Its MIC is 12.5 µg/mL.

Question: And the MIC (Klebsiella pneumonia; [13])?
Answer: The MIC was 12.5 µg/mL.

Question: What about the MIC (Proteus vulgaris; [14]) of the same substance?
Answer: The MIC was 25 µg/mL.

Question: And the MIC (Proteus mirabilis; [15])?
Answer: The MIC was 50 µg/mL.

Question: And the MIC (Aeromonas hydrophila; [16])?
Answer: The MIC was 25 µg/mL.

Question: What about the MIC (E. coli BL21; [17]) of the same substance?
Answer: The MIC was 12.5 µg/mL.

Question: And the MIC (Serratia marcescens; [18])?
Answer: Its MIC is 100 µg/mL.

Question: And the MIC (Pseudomonas aeruginosa; [19])?
Answer: The MIC was 50 µg/mL.

Question: What about the MIC (Enterobacter cloacae; [20]) of the same substance?
Answer: Its MIC is 50 µg/mL.

Question: Which results are given for “PRT458 (ECSRLCRNGYCTPTGKCCCSPGWEGDFC; listed as Homo sapiens)”?
Answer: MIC against M. catarrhalis (Moraxella catarrhalis; 96-well plate, 37° C., 10 h): 25 µg/mL; MIC (E. coli DH5α): 50 µg/mL; MIC against C. diversus (Citrobacter diversus; 96-well plate, 37° C., 10 h): 12.5 µg/mL; MIC against K. pneumonia (Klebsiella pneumonia; 96-well plate, 37° C., 10 h): 12.5 µg/mL; MIC against P. vulgaris (Proteus vulgaris; 96-well plate, 37° C., 10 h): 25 µg/mL; MIC against P. mirabilis (Proteus mirabilis; 96-well plate, 37° C., 10 h): 12.5 µg/mL; MIC against A. hydrophila (Aeromonas hydrophila; 96-well plate, 37° C., 10 h): 25 µg/mL; MIC against E. coli BL21 (E. coli BL21; 96-well plate, 37° C., 10 h): 12.5 µg/mL; MIC against S. marcescens (Serratia marcescens; 96-well plate, 37° C., 10 h): 12.5 µg/mL; MIC against P. aeruginosa (Pseudomonas aeruginosa; 96-well plate, 37° C., 10 h): 12.5 µg/mL; MIC against E. cloacae (Enterobacter cloacae; 96-well plate, 37° C., 10 h): 12.5 µg/mL

Question: “PRT756 (KIDYCASSNHGCQHECVNTDDSYSCHCLKGFTLNPDKKTCR; listed as Homo sapiens)” was tested. Which “MIC (μg/mL) M. catarrhalis” value (Moraxella catarrhalis; [11]) did it give?
Answer: Its value is 50 µg/mL.

Question: And the MIC (E. coli DH5α)?
Answer: The MIC was 12.5 µg/mL.

Question: What about the “MIC (μg/mL) C. diversus” value (Citrobacter diversus; [12]) of the same substance?
Answer: Its value is 12.5 µg/mL.

Question: And the “MIC (μg/mL) K. pneumonia” value (Klebsiella pneumonia; [13])?
Answer: Its value is 50 µg/mL.

Question: And the “MIC (μg/mL) P. vulgaris” value (Proteus vulgaris; [14])?
Answer: Its value is 50 µg/mL.

Question: And the “MIC (μg/mL) P. mirabilis” value (Proteus mirabilis; [15])?
Answer: Its value is 12.5 µg/mL.

Question: And the “MIC (μg/mL) A. hydrophila” value (Aeromonas hydrophila; [16])?
Answer: The value was 50 µg/mL.

Question: And the “MIC (μg/mL) E. coli BL21” value (E. coli BL21; [17])?
Answer: Its value is 25 µg/mL.

Question: And the “MIC (μg/mL) S. marcescens” value (Serratia marcescens; [18])?
Answer: Its value is 12.5 µg/mL.

Question: And the “MIC (μg/mL) P. aeruginosa” value (Pseudomonas aeruginosa; [19])?
Answer: The value was 12.5 µg/mL.

Question: What about the “MIC (μg/mL) E. cloacae” value (Enterobacter cloacae; [20]) of the same substance?
Answer: The value was 12.5 µg/mL.
